From ChEMBL document CHEMBL3779770, “Synthesis, biological evaluation and molecular docking study of some novel indole and pyridine based 1,3,4-oxadiazole derivatives as potential antitubercular agents” (Bioorg Med Chem Lett, 2016)
Converted amounts (≈) assume the structure as drawn.

Experiments:
[1] = Selectivity index, ratio of GI50 for human A549 cells to MIC for dormant state Mycobacterium bovis BCG ATCC 35734; assay type: toxicity, cell-based; settings: read-out: Selectivity Index
[2] = Selectivity index, ratio of GI50 for human PANC1 cells to MIC for active state Mycobacterium bovis BCG ATCC 35734; assay type: toxicity, cell-based, PANC-1; settings: read-out: Selectivity Index
[3] = Selectivity index, ratio of GI50 for human PANC1 cells to MIC for dormant state Mycobacterium bovis BCG ATCC 35734; assay type: toxicity, cell-based, PANC-1; settings: read-out: Selectivity Index
Escherichia coli = assay: Antibacterial activity against Escherichia coli NCIM 2688 after 8 hrs; assay type: functional, organism-based; settings: NCIM 2688, 8 h
Pseudomonas fluorescens = assay: Antibacterial activity against Pseudomonas fluorescens NCIM 2036 after 8 hrs; assay type: functional, organism-based; settings: NCIM 2036, 8 h
Staphylococcus aureus = assay: Antibacterial activity against Staphylococcus aureus NCIM 2010 after 12 hrs; assay type: functional, organism-based; settings: NCIM 2010, 12 h
Bacillus subtilis = assay: Antibacterial activity against Bacillus subtilis NCIM 2079 after 12 hrs; assay type: functional, organism-based; settings: NCIM 2079, 12 h
[4] = test system: Mycobacterium tuberculosis; assay: Antitubercular activity against active state Mycobacterium tuberculosis H37Ra assessed as viable cells after 8 days by XTT reduction menadione assay; assay type: functional, organism-based; settings: 192 h
[5] = test system: Mycobacterium tuberculosis; assay: Antitubercular activity against dormant state Mycobacterium tuberculosis H37Ra assessed as viable cells after 12 days by XTT reduction menadione assay; assay type: functional, organism-based; settings: 288 h
[6] = (§1) Cytotoxicity against human HeLa cells after 72 hrs by MTT assay; assay type: cell-based; settings: HeLa cells
HeLa = assay: as §1; assay type: cell-based; settings: hela, 72 h
[7] = (§2) Cytotoxicity against human A549 cells after 48 hrs by MTT assay; assay type: cell-based; settings: A549 cells
A549 = assay: as §2; assay type: cell-based; settings: a549, 48 h
[8] = Cytotoxicity against human PANC1 cells after 48 hrs by MTT assay; assay type: cell-based, PANC-1; settings: for GI50 at 48 h: PANC1 cells; for GI90: panc-1, 48 h
[9] = Selectivity index, ratio of GI50 for human HeLa cells to MIC for active state Mycobacterium bovis BCG ATCC 35734; assay type: toxicity, cell-based; settings: read-out: Selectivity Index
[10] = Selectivity index, ratio of GI50 for human HeLa cells to MIC for dormant state Mycobacterium bovis BCG ATCC 35734; assay type: toxicity, cell-based; settings: read-out: Selectivity Index
[11] = Selectivity index, ratio of GI50 for human A549 cells to MIC for active state Mycobacterium bovis BCG ATCC 35734; assay type: toxicity, cell-based; settings: read-out: Selectivity Index

Compound: O=C(/C=C\c1ccccc1O)N1N=C(c2ccncc2)OC1c1c[nH]c2ccccc12 (centres undefined)
- selectivity ratio [1]: > 25.2
- selectivity ratio [2]: > 31.9
- selectivity ratio [3]: > 25.2
- IC50 (Escherichia coli): 21.7 µg/mL (≈ 52.9 µM)
- MIC (Escherichia coli): > 256 µg/mL
- IC50 (Pseudomonas fluorescens): 22.5 µg/mL (≈ 54.9 µM)
- MIC (Pseudomonas fluorescens): 192 µg/mL (≈ 469 µM)
- IC50 (Staphylococcus aureus): 23.3 µg/mL (≈ 56.8 µM)
- MIC (Staphylococcus aureus): > 256 µg/mL
- IC50 (Bacillus subtilis): 22.1 µg/mL (≈ 53.9 µM)
- MIC (Bacillus subtilis): > 256 µg/mL
- IC50 [4]: > 30 µg/mL
- MIC [4]: > 30 µg/mL
- IC50 [5]: > 30 µg/mL
- MIC [5]: > 30 µg/mL
- GI50 at 72 h [6]: 26.8 µg/mL (≈ 65.3 µM)
- GI90 (HeLa): > 30 µg/mL
- GI50 at 48 h [7]: > 30 µg/mL
- GI90 (A549): > 30 µg/mL
- GI50 at 48 h [8]: > 30 µg/mL
- GI90 [8]: > 30 µg/mL
- selectivity ratio [9]: 28.5
- selectivity ratio [10]: 22.5
- selectivity ratio [11]: > 31.9

Compound: O=C(/C=C\c1ccc(Cl)cc1Cl)N1N=C(c2ccncc2)OC1c1c[nH]c2ccccc12 (centres undefined)
- selectivity ratio [1]: > 6.03
- selectivity ratio [2]: > 5.8
- selectivity ratio [3]: > 6.03
- IC50 (Escherichia coli): > 256 µg/mL
- MIC (Escherichia coli): > 256 µg/mL
- IC50 (Pseudomonas fluorescens): > 256 µg/mL
- MIC (Pseudomonas fluorescens): > 256 µg/mL
- IC50 (Staphylococcus aureus): > 256 µg/mL
- MIC (Staphylococcus aureus): > 256 µg/mL
- IC50 (Bacillus subtilis): > 256 µg/mL
- MIC (Bacillus subtilis): > 256 µg/mL
- IC50 [4]: 29.3 µg/mL (≈ 63.3 µM)
- MIC [4]: > 30 µg/mL
- IC50 [5]: 27.5 µg/mL (≈ 59.4 µM)
- MIC [5]: > 30 µg/mL
- GI50 at 72 h [6]: 29.3 µg/mL (≈ 63.3 µM)
- GI90 (HeLa): > 30 µg/mL
- GI50 at 48 h [7]: > 30 µg/mL
- GI90 (A549): > 30 µg/mL
- GI50 at 48 h [8]: > 30 µg/mL
- GI90 [8]: > 30 µg/mL
- selectivity ratio [9]: 5.68
- selectivity ratio [10]: 5.9
- selectivity ratio [11]: > 5.8

Compound: NNC(=O)c1ccncc1 [ISONIAZID]
- selectivity ratio [1]: > 2560
- selectivity ratio [2]: > 3030
- selectivity ratio [3]: > 2560
- IC50 [4]: 0.0013 µg/mL (≈ 0.00948 µM)
- MIC [4]: 0.031 µg/mL (≈ 0.226 µM)
- IC50 [5]: 0.0014 µg/mL (≈ 0.0102 µM)
- MIC [5]: 0.034 µg/mL (≈ 0.248 µM)
- selectivity ratio [9]: > 3030
- selectivity ratio [10]: > 2560
- selectivity ratio [11]: > 3030

Compound: CO[C@H]1/C=C/O[C@@]2(C)Oc3c(C)c(O)c4c(O)c(c(/C=N/N5CCN(C)CC5)c(O)c4c3C2=O)NC(=O)/C(C)=C\C=C\[C@H](C)[C@H](O)[C@@H](C)[C@@H](O)[C@@H](C)[C@H](OC(C)=O)[C@@H]1C [RIFAMPIN]
- selectivity ratio [1]: > 2700
- selectivity ratio [2]: > 2860
- selectivity ratio [3]: > 2700
- IC50 [4]: 0.0016 µg/mL (≈ 0.00194 µM)
- MIC [4]: 0.041 µg/mL (≈ 0.0498 µM)
- IC50 [5]: 0.0017 µg/mL (≈ 0.00207 µM)
- MIC [5]: 0.045 µg/mL (≈ 0.0547 µM)
- selectivity ratio [9]: > 2860
- selectivity ratio [10]: > 2700
- selectivity ratio [11]: > 2860

Compound: O=C(/C=C\c1ccccc1[N+](=O)[O-])N1N=C(c2ccncc2)OC1c1c[nH]c2ccccc12 (centres undefined)
- selectivity ratio [1]: > 35.3
- selectivity ratio [2]: > 29.1
- selectivity ratio [3]: > 35.3
- IC50 (Escherichia coli): 18.4 µg/mL (≈ 41.8 µM)
- MIC (Escherichia coli): > 256 µg/mL
- IC50 (Pseudomonas fluorescens): 19.2 µg/mL (≈ 43.7 µM)
- MIC (Pseudomonas fluorescens): > 256 µg/mL
- IC50 (Staphylococcus aureus): 21.1 µg/mL (≈ 47.9 µM)
- MIC (Staphylococcus aureus): > 256 µg/mL
- IC50 (Bacillus subtilis): 24.2 µg/mL (≈ 55.2 µM)
- MIC (Bacillus subtilis): > 256 µg/mL
- IC50 [4]: > 30 µg/mL
- MIC [4]: > 30 µg/mL
- IC50 [5]: > 30 µg/mL
- MIC [5]: > 30 µg/mL
- GI50 at 72 h [6]: > 30 µg/mL
- GI90 (HeLa): > 30 µg/mL
- GI50 at 48 h [7]: > 30 µg/mL
- GI90 (A549): > 30 µg/mL
- GI50 at 48 h [8]: > 30 µg/mL
- GI90 [8]: > 30 µg/mL
- selectivity ratio [9]: > 29.1
- selectivity ratio [10]: > 35.3
- selectivity ratio [11]: > 29.1

Compound: O=C(/C=C\c1ccc([N+](=O)[O-])cc1)N1N=C(c2ccncc2)OC1c1c[nH]c2ccccc12 (centres undefined)
- selectivity ratio [1]: > 12.7
- selectivity ratio [2]: > 12
- selectivity ratio [3]: > 12.7
- IC50 (Escherichia coli): 9.46 µg/mL (≈ 21.5 µM)
- MIC (Escherichia coli): 28.2 µg/mL (≈ 64.3 µM)
- IC50 (Pseudomonas fluorescens): 11.9 µg/mL (≈ 27 µM)
- MIC (Pseudomonas fluorescens): 29.1 µg/mL (≈ 66.1 µM)
- IC50 (Staphylococcus aureus): 12.7 µg/mL (≈ 28.8 µM)
- MIC (Staphylococcus aureus): 30.6 µg/mL (≈ 69.7 µM)
- IC50 (Bacillus subtilis): 13.5 µg/mL (≈ 30.6 µM)
- MIC (Bacillus subtilis): 31.4 µg/mL (≈ 71.6 µM)
- IC50 [4]: > 30 µg/mL
- MIC [4]: > 30 µg/mL
- IC50 [5]: > 30 µg/mL
- MIC [5]: > 30 µg/mL
- GI50 at 72 h [6]: > 30 µg/mL
- GI90 (HeLa): > 30 µg/mL
- GI50 at 48 h [7]: > 30 µg/mL
- GI90 (A549): > 30 µg/mL
- GI50 at 48 h [8]: > 30 µg/mL
- GI90 [8]: > 30 µg/mL
- selectivity ratio [9]: > 12
- selectivity ratio [10]: > 12.7
- selectivity ratio [11]: > 12

Compound: O=C(/C=C\c1cccc([N+](=O)[O-])c1)N1N=C(c2ccncc2)OC1c1c[nH]c2ccccc12 (centres undefined)
- IC50 (Escherichia coli): 19.2 µg/mL (≈ 43.7 µM)
- MIC (Escherichia coli): 174 µg/mL (≈ 395 µM)
- IC50 (Pseudomonas fluorescens): 20.9 µg/mL (≈ 47.5 µM)
- MIC (Pseudomonas fluorescens): 55.7 µg/mL (≈ 127 µM)
- IC50 (Staphylococcus aureus): 21.7 µg/mL (≈ 49.3 µM)
- MIC (Staphylococcus aureus): 93.2 µg/mL (≈ 212 µM)
- IC50 (Bacillus subtilis): 22.4 µg/mL (≈ 51 µM)
- MIC (Bacillus subtilis): 86 µg/mL (≈ 196 µM)
- IC50 [4]: > 30 µg/mL
- MIC [4]: > 30 µg/mL
- IC50 [5]: > 30 µg/mL
- MIC [5]: > 30 µg/mL
- GI50 at 72 h [6]: > 30 µg/mL
- GI90 (HeLa): > 30 µg/mL
- GI50 at 48 h [7]: > 30 µg/mL
- GI90 (A549): > 30 µg/mL
- GI50 at 48 h [8]: > 30 µg/mL
- GI90 [8]: > 30 µg/mL
